Data as given in paper PMC5820588, “Isolation and Biological Evaluation of Prenylated Flavonoids from Maclura pomifera” (Evidence-based Complementary and Alternative Medicine : eCAM, 2018).

How the values were obtained:
CB1 receptor = CB1 receptor (Homo sapiens, UniProt P21554); assay: Cannabinoid receptor assay, CB1 (CP-55940 as control); type: binding
Experimental: (§1) The affinities of the total extracts and the isolated compounds towards cannabinoid and opioid receptors were assessed according to the published method.
(§2) The affinities of the total extracts and the isolated compounds towards cannabinoid and opioid receptors were assessed using CP-55940 and Naloxone as controls for cannabinoid and opioid receptors assays, respectively.

[1] = target: T1, recombinant human monoamine oxidase-B (Homo sapiens, UniProt P27338); assay: MAO-B inhibition, kynuramine deamination assay; type: biochemical; conditions: for Selectivity of MAO inhibition: MAO-B versus MAO-A; for IC50: kynuramine 50 μM, pH 7.4, 37°C, mean ±SD of triplicate; for SI index MAO-A/B: ratio of MAO-A IC50 to MAO-B IC50
T1 construct: purchased BD Biosciences (Bedford, MA, USA)
T1 sequence (P27338 1-520): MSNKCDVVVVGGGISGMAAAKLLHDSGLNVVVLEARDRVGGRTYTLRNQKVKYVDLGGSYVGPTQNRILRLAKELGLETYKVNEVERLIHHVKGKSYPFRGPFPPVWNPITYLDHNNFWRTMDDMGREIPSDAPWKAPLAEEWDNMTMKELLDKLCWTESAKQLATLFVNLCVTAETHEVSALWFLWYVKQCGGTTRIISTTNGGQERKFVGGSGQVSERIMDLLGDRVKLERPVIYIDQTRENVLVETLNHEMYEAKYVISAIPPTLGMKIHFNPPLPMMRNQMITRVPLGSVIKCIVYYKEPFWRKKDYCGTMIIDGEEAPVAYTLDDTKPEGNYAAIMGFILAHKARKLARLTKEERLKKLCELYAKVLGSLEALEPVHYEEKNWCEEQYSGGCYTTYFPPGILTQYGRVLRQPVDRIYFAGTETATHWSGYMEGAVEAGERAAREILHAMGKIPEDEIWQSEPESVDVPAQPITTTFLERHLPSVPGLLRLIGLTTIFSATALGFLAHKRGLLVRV
Experimental: (§3) The inhibitory effects of the chemical components of M. pomifera (L.) on MAO-A and MAO-B were determined via the kynuramine deamination assay, where it was adapted for 96-well plates as described earlier. A fixed concentration of the substrate and varying concentrations of the inhibitor were used to determine the IC50 value at the point where 50% inhibition of the catalytic activity of the enzyme occurred. For MAO-A, the substrate (kynuramine) concentration of 80 μM was chosen, since the KM value of substrate binding reported previously was approximately 40 μM [23]. […] Similarly, for MAO-B, a substrate (kynuramine) concentration of 50 μM was chosen. The assay was performed with the addition of the inhibitor. Inhibition was calculated as percent of the product formation compared to the corresponding control (enzyme-substrate reaction) without the inhibitors. The enzyme reactions were carried out in 0.1 M potassium phosphate buffer at pH 7.4. Reaction mixtures contained 5 μg/mL of MAO-A (18.75 μL in buffer) and 10 μg/mL of MAO-B (18.75 μL in buffer). The compounds were dissolved in DMSO and diluted in buffer. The total reaction mixture volume was 75 μL, yielding a final DMSO concentration of 1.0% in the reaction mixture. The reaction mixtures were preincubated for 10 min at 37°C followed by the addition of MAO-A/MAO-B to initiate the reactions. The reaction mixtures were incubated for 20 min at 37°C and stopped by the addition of 28 μL of 2 N NaOH. The formation of 4-hydroxyquinoline was determined fluorometrically by Spectra Max M5 fluorescence plate reader (Molecular Devices, Sunnyvale, CA, USA) with an excitation and emission wavelength of 320 nm and 380 nm, respectively, using the Soft Max Pro program. Appropriate controls were set up to check the interference with the fluorescence measurements. […] The determination of IC50 values for inhibition of MAO-A and MAO-B by the M. pomifera (L.) compounds was performed using a fixed concentration of the substrate and varying the concentration of the inhibitor.
(§4) The compounds isolated from M. pomifera (L.) fruits were tested for their inhibitory effect against recombinant human MAO isoforms (MAO-A and MAO-B) in vitro. The enzymatic activity of MAO-A and MAO -B was determined via a fluorescence based method.

[2] = target: T2, recombinant human monoamine oxidase-A (Homo sapiens, UniProt P21397); assay: MAO-A inhibition, kynuramine deamination assay; type: biochemical; conditions: kynuramine 80 μM, pH 7.4, 37°C; mean ±SD of triplicate
T2 construct: purchased BD Biosciences (Bedford, MA, USA)
T2 sequence (P21397 1-527): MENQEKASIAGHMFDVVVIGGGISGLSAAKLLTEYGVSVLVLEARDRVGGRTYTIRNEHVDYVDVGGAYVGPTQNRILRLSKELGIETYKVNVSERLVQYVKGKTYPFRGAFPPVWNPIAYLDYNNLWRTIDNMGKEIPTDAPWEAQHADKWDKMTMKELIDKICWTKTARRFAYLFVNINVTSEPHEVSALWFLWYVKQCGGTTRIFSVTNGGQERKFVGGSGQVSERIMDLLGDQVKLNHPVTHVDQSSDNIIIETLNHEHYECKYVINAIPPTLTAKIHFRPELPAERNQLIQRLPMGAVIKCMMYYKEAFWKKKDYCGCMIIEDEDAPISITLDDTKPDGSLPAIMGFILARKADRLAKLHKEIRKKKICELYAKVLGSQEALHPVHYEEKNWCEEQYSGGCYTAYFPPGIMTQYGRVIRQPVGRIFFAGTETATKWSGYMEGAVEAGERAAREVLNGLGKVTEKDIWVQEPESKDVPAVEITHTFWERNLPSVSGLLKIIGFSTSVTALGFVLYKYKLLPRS
Experimental: as §3, §4

CB2 receptor = CB2 receptor (Homo sapiens, UniProt P34972); assay: Cannabinoid receptor assay, CB2 (CP-55940 as control); type: binding
Experimental: as §1, §2

μ opioid receptor = μ opioid receptor (Homo sapiens, UniProt P35372); assay: Opioid receptor assay, μ (Naloxone as control); type: binding; conditions: negative value read as possibly allosteric
Experimental: as §1, §2

κ opioid receptor = κ opioid receptor (Homo sapiens, UniProt P41145); assay: Opioid receptor assay, κ (Naloxone as control); type: binding; conditions: negative value read as possibly allosteric
Experimental: as §1, §2

Sequence of CB1 receptor (P21554 whole entry): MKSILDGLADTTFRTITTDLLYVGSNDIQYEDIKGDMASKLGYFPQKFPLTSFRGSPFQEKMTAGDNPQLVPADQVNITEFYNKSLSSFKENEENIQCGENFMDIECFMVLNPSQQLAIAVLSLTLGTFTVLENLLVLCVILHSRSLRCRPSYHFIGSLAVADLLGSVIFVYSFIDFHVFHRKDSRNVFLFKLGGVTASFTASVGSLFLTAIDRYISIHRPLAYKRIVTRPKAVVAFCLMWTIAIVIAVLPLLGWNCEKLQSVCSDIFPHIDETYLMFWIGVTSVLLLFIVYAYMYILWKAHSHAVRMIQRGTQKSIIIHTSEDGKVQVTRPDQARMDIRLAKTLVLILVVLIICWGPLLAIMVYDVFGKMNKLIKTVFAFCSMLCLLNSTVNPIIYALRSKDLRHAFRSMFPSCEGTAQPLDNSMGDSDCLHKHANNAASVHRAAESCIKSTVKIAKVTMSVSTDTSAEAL
Sequence of CB2 receptor (P34972 whole entry): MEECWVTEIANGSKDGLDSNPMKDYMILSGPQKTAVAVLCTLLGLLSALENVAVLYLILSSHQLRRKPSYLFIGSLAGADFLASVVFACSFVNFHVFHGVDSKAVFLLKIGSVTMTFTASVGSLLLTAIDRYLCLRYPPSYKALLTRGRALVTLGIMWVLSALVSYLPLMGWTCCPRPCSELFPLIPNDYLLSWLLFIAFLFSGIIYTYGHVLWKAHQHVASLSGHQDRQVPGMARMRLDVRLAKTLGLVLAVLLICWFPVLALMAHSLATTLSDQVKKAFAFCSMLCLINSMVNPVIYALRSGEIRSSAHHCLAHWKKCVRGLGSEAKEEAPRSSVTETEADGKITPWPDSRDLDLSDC
Sequence of κ opioid receptor (P41145 whole entry): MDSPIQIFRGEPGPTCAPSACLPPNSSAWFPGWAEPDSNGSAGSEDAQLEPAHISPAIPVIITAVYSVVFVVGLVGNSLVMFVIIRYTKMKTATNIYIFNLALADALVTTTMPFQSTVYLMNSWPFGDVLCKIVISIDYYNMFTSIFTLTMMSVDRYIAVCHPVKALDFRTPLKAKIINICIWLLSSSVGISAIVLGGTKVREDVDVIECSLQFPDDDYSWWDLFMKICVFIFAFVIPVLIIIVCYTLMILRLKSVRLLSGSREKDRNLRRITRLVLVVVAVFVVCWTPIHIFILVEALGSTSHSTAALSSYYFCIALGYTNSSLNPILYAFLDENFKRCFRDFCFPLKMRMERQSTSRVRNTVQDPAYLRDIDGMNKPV
Sequence of μ opioid receptor (P35372 whole entry): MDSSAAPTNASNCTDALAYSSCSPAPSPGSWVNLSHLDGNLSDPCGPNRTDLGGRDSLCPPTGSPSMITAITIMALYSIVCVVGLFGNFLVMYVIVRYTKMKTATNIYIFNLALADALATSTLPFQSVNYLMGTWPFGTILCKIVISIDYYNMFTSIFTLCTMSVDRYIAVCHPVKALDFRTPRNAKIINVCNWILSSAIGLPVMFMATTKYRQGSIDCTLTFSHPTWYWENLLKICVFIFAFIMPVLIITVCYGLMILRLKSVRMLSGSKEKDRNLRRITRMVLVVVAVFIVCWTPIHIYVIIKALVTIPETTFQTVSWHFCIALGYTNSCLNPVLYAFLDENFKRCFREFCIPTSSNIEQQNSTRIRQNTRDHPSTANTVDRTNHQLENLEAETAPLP

IC50 (CB1 receptor) [µM] | Ki (CB1 receptor) [µM] | CB1 % displacement (CB1 receptor; 10 μM) [%] | Selectivity of MAO inhibition [1] | IC50 [1] [µM] | SI index MAO-A/B [1] | IC50 [2] [µM] | CB1 % displacement (CB1 receptor; concentration not given) [%] | CB2 % displacement (CB2 receptor; concentration not given) [%] | IC50 (CB2 receptor) [µM] | CB2 % displacement (CB2 receptor; 10 μM) [%] | μ opioid receptor % displacement (μ opioid receptor) [%] | κ opioid receptor % displacement (κ opioid receptor) [%] | Ki (CB2 receptor) [µM] | SMILES
8.92 | 4.46 | 86.7 | selective inhibition of MAO-B | 1.91 ± 0.32 | 24.073 | 46 ± 4.48 | – | – | – | – | – | – | – | CC(C)=CCc1c2c(c(O)c3c(=O)c(-c4ccc(O)c(O)c4)coc13)C=CC(C)(C)O2 [Auriculasin (VI), auriculasin]
– | – | – | selective inhibition of MAO-B | 4.28 ± 0.67 | 16.829 | 72 ± 3.72 | 47.9 | 42.3 | – | – | – | – | – | C=C(C)C(O)C(=O)c1c2c(c3occ(-c4ccc(O)c(O)c4)c(=O)c3c1O)C=CC(C)(C)O2 (stereo not drawn) [Kazosajin II, 3-(3,4-Dihydroxyphenyl)-5-hydroxy-6-(2-hydroxy-3-methylbut-3-enoyl)-8,8-dimethylpyrano[2,3-f]chromen-4(8H)-one]
– | – | – | – | 11.6 ± 1.39 | 6.413 | 74.3 ± 3.44 | 60.5 | – | – | – | −27.2 | −88.4 | – | COC(Cc1c2c(c(O)c3c(=O)c(-c4ccc(O)c(O)c4)coc13)C=CC(C)(C)O2)C(C)(C)O (stereo not drawn) [Kazosajin I, 3-(3,4-Dihydroxyphenyl)-5-hydroxy-10-(3-hydroxy-2-methoxy-3-methylbutyl)-8,8-dimethylpyrano[3,2-g]chromen-4(8H)-one]
1.67 | – | 111.3 | selective inhibition of MAO-B | 5.69 ± 0.38 | – | > 100 | 111.3 | 77.57 | 4.44 | 77.6 | – | – | 2.22 | CC(C)=CCc1c2c(c(O)c3c(=O)c(-c4ccc(O)cc4)coc13)C=CC(C)(C)O2 [Warangalone (VII), warangalone]
– | – | – | selective inhibition of MAO-B | 7.16 ± 1.15 | – | > 100 | – | – | – | – | – | – | – | CC1(C)C=Cc2c(c3c(c4c(=O)c(-c5ccc(O)cc5)coc24)OC(C)(C)C(O)C3)O1 (stereo not drawn) [Kazosajin III, 11-Hydroxy-7-(4-hydroxyphenyl)-2,2,10,10-tetramethyl-11,12-dihydro-2H-dipyrano[2,3-f: 2′,3′-h]chromen-8(10H)-one]
3.86 | 1.93 | 93.9 | – | > 100 | – | > 100 | 93.9 | 52.7 | 7.65 | 52.7 | – | – | 3.82 | CC(C)=CCc1c2c(c3occ(-c4ccc(O)cc4)c(=O)c3c1O)C=CC(C)(C)O2 [Osajin (VIII), osajin]
– | – | – | – | 17.7 ± 1.06 | 4.032 | 71.2 ± 2.61 | – | – | – | – | – | – | – | COC(c1c2c(c(O)c3c(=O)c(-c4ccc(O)c(O)c4)coc13)C=CC(C)(C)O2)C1OC1(C)C (stereo not drawn) [Kazosajin IV, 3-(3,4-Dihydroxyphenyl)-10-((3,3-dimethyloxiran-2-yl)(methoxy)methyl)-5-hydroxy-8,8-dimethylpyrano[3,2-g]chromen-4(8H)-one]

SMILES | IC50 (CB1 receptor) [µM] | Ki (CB1 receptor) [µM] | CB1 % displacement (CB1 receptor; 10 μM) [%] | Selectivity of MAO inhibition [1] | IC50 [1] [µM] | SI index MAO-A/B [1] | IC50 [2] [µM] | CB1 % displacement (CB1 receptor; concentration not given) [%] | CB2 % displacement (CB2 receptor; concentration not given) [%] | IC50 (CB2 receptor) [µM] | CB2 % displacement (CB2 receptor; 10 μM) [%] | μ opioid receptor % displacement (μ opioid receptor) [%] | κ opioid receptor % displacement (κ opioid receptor) [%] | Ki (CB2 receptor) [µM]
CC(C)=CCc1c2c(c3occ(-c4ccc(O)c(O)c4)c(=O)c3c1O)C=CC(C)(C)O2 [Pomiferin (V), pomiferin] | 2.11 | 1.05 | 107.2 | – | > 100 | – | > 100 | 107.2 | 66.0 | 1.32 | 66.0 | – | – | –
